Assay results as given in patent publication US5084479A, “Novel methods for treating neurodegenerative diseases” (priority 1990, dated 1992).
Several values for one entry are separate records, joined by “and”; a condition that tells them apart may be missing. Equal entries are not always repeated. Where two headings read alike, the source gives them in different places.

How the values were obtained:
[1] = tested on: glycine modulatory site of the NMDA receptor-channel complex; assay type: cell-based, rat; details: for Effect on glycine-potentiated NMDA-induced current: gabapentin 10 μM with glycine 1 μM and strychnine 10 μM, reversed on washing; for Effect on glycine-potentiated NMDA-induced current / Effect on NMDA-induced current in the absence of glycine: acetic acid; for Effect on NMDA-induced current in the absence of glycine: gabapentin 10 μM, bath application, reversed on washing for four minutes
Description: Whole-cell patch clamp techniques were employed to investigate the effects of the antiepileptic drug, gabapentin, upon the responses of striatal neurons in dissociated culture to NMDA.
Striata were aseptically dissected from 16-day-old rat fetuses and mechanically triturated in enzyme-free Puck's saline (Gibco, UK). The resulting suspension was diluted to 1×10^6 cells/mL using freshly prepared medium. The medium was composed of Minimal essential medium with Earle's salts and included Fetal calf serum (5% v/v), Horse serum (5% v/v), L-Glutamine (2 mM), Insulin ([…]), and HEPES (5 mM) buffer (all Gibco, UK).
The cells were plated onto Poly-L-ornithine ([…]; Sigma) coated glass coverslips (diameter 13 mm) and incubated at 37° C. in a humidified atmosphere of 95% Air/5% CO2.
After seven days, the media was replaced with freshly prepared media containing (+)-5-fluoro-deoxyuridine (10 μM; Sigma) to inhibit the proliferation of nonneuronal elements. Cultures were subsequently fed twice weekly.
Patch electrodes with ohmic resistances of 6-10 M .OMEGA. were filled with an intracellular solution of the following composition (all mM); CsF 140.0, CaCl2 0.5, NaCl 1.0, K-EGTA 5.0 and HEPES 10.0. All recordings were made at 20°-22° C. using a List EPC7 amplifier and the resulting signal was filtered at 10 KHz. Fast and slow transient capacity compensation was employed, and cells were voltage clamped at a holding potential of -70 mV, unless otherwise stated.
Drugs were dissolved to a known concentration in the extracellular solution and were applied via the perfusion system. NMDA was applied via the perfusion system, or by rapid pressure ejection. All drugs were obtained from Sigma, except gabapentin which was synthesized at Goedecke (Warner-Lambert) Germany.

[2] = tested on: NMDA receptor-channel complex; experiment: Intracellular recording of NMDA-induced depolarization, paraventricular thalamus (PVT) neurones in brain slices; assay type: cell-based, rat; details: gabapentin 300 μM
Description: (§1) Intracellular recordings were made from neurones of either paraventricular thalamus (n =8, 7 slices) or CA1 region of the hippocampus (n =5, 5 slices) contained in […] rat brain slices. NMDA applied via the perfusion system, produced a concentration-dependent depolarization of all neurones tested. In every case but one, control response to NMDA was reduced by a concomitant application of gabapentin (300 μM). The concentration-response curves for NMDA in the presence and absence of gabapentin show a noncompetitive interaction of gabapentin with NMDA receptor-channel complex.
(§2) Coronal slices of rat brain at the level of the ventromedial hypothalamus were chosen since these contain both hippocampus and paraventricular thalamus (PVT). Slices were perfused in normal (1.3 mM magnesium) artificial cerebrospinal fluid (ACSF) at 3 mL/min. Conventional intracellular recording techniques were employed, using 1M potassium acetate-filled electrodes pulled on a Brown-Flaming microelectrode puller type P-87.
Drugs were made up as stock solutions in distilled water (NMDA 50 mM; gabapentin 100 mM) and stored frozen prior to use. The required concentrations of each drug were obtained by direct dilution with ACSF at the time of the experiment. Control dose-response curves for NMDA were obtained either in the presence or absence of tetrodotoxin (TTX). NMDA was applied to a 30-second period, with at least five minutes between successive doses. Gabapentin was added to the same NMDA-containing solutions and the dose-response curves repeated. Experiments were also performed using repeated single doses of NMDA to ensure that the effects of gabapentin were not due to rundown of the NMDA response.

[3] = tested on: seizures elicited by 4-aminobutanoic acid (GABA) synthesis or GABA receptor antagonists; details: mice; cited from earlier work
[4] = tested on: GABAB; details: cited from earlier work
[5] = in vivo; cited from earlier work
[6] = tested on: neuronal GABA uptake; details: cited from earlier work
[7] = in vivo; cited from earlier work; remark: listed apart in the source
[8] = tested on: NMDA receptor-channel complex; experiment: Intracellular recording of NMDA-induced depolarization, CA1 hippocampal neurones in brain slices; assay type: cell-based, rat; details: gabapentin 300 μM
Description: as §1, §2
Drugs were made up as stock solutions in distilled water (NMDA 50 mM; gabapentin 100 mM) and stored frozen prior to use. The required concentrations of each drug were obtained by direct dilution with ACSF at the time of the experiment. Control dose-response curves for NMDA were obtained either in the presence or absence of tetrodotoxin (TTX). […]

[9] = tested on: GABA; details: cited from earlier work
[10] = tested on: seizures elicited by NMDA; details: in vivo; cited from earlier work

Question: With `NCC(=O)O` [Glycine, reference compound] as the compound, how does the “Effect of glycine on NMDA-induced peak current” value [1] read?
Answer: Its value is “potentiation of the NMDA induced peak current”.

Question: And the “Effect of glycine on sustained inward current produced by bath application of NMDA” value ([1]; NMDA 100 μM bath application, glycine 1 μM)?
Answer: Its value is “markedly potentiated”.

Question: What about the “Peak Inward Current (pA), relative to NMDA = 100%” value ([1]; striatal neurons) of the same compound?
Answer: The value was 589 ± 156% and 713 ± 260%.

Question: Which “Reduction of NMDA depolarization” value ([2]; 100 μM NMDA for 30 s, TTX present, thalamic neurones (FIG. 5)) does the source give for `NCC1(CC(=O)O)CCCCC1` [gabapentin, 1-aminomethyl-cyclohexane acetic acid] here?
Answer: Its value is about 60%.

Question: What about the “Nature of the block of the NMDA response” value ([2]; NMDA dose-response curves, PVT neurones (FIG. 6B)) of the same compound?
Answer: Its value is “noncompetitive”.

Question: And the “Effect on response (depolarization) to NMDA” value ([2]; high (30 to 50 μM) concentrations of NMDA, PVT neurones)?
Answer: Its value is “reduced”.

Question: What about the Protection from seizures [3] of the same compound?
Answer: The Protection from seizures was “protect mice from seizures”.

Question: And the “Peak Inward Current (pA), relative to NMDA = 100%” value ([1]; Table 2, NMDA + 10 μM GABA-P, no exogenous glycine, n = 4)?
Answer: Its value is 305 ± 88%.

Question: What about the “Peak Inward Current (pA), relative to NMDA = 100%” value ([1]; Table 2, NMDA after 'wash' of 10 μM GABA-P, n = 4) of the same compound?
Answer: Its value is 106 ± 9%.

Question: What about the “Peak Inward Current (pA), relative to NMDA = 100%” value ([1]; Table 3, 'wash' of GABA-P, NMDA + 1 μM Glycine + 10 μM Strychnine, n = 3) of the same compound?
Answer: The value was 257 ± 418%.

Question: And the “Peak Inward Current (pA), relative to NMDA = 100%” value ([1]; Table 3, NMDA + 1 μM Glycine + 10 μM Strychnine + 10 μM GABA-P, n = 3)?
Answer: The value was 201 ± 24%.

Question: What about the “Effect on glycine-potentiated NMDA-induced current” value [1] of the same compound?
Answer: The value was “antagonism of the glycine-induced potentiation of the NMDA-induced current”.

Question: And the “Effect on glycine-potentiated NMDA-induced current” value ([1]; listed as Gabapentin)?
Answer: Its value is “antagonism of the glycine-potentiated NMDA current”.

Question: What about the “Effect on NMDA-induced current in the absence of glycine” value [1] of the same compound?
Answer: Its value is “potentiation of the NMDA-induced current”.

Question: And the “Effect on NMDA-induced current in the absence of glycine” value ([1]; listed as Gabapentin)?
Answer: The value was “reversible potentiation of the NMDA-induced current”.

Question: What about the “Displacement of GABAB binding” value [4] of the same compound?
Answer: The value was “does not displace”.

Question: What about the Tolerability [5] of the same compound?
Answer: Its Tolerability is “well tolerated”.

Question: And the Toxicity [5]?
Answer: Its Toxicity is “relatively nontoxic”.

Question: And the “Interference with neuronal GABA uptake” value [6]?
Answer: The value was “does not interfere with neuronal GABA uptake”.

Question: And the “Metabolism in the body” value [7]?
Answer: Its value is “not metabolized in the body”.

Question: And the “Effect on NMDA-induced depolarization” value ([8]; CA1 hippocampal neurones, more evident as NMDA concentration increased)?
Answer: Its value is “reduction in the NMDA-induced depolarization”.

Question: And the “Nature of the block of the NMDA response” value ([8]; NMDA dose-response curves, hippocampus (FIG. 8B))?
Answer: Its value is “noncompetitive”.

Question: What about the “Displacement of GABA binding” value [9] of the same compound?
Answer: The value was “does not displace”.

Question: What about the “Latency of onset of seizures elicited by NMDA” value [10] of the same compound?
Answer: Its value is “prolong the latency of onset of seizures”.
